Test results reported in PMC7884015 (Journal of Agricultural and Food Chemistry, 2021).
Entries after “also recorded” stand apart in the source; their conditions may differ. Where two headings read alike, the source gives them in different places.

Tests used:
in vivo = settings: for Bee without gut %: percentage of total quantity recovered in the dissected bee found in the bee without gut; for Bee without gut % / Gut %: N = 6; for Gut %: percentage of total quantity recovered in the dissected bee found in the gut
Description: (§1) Honey bees (A. mellifera L) were collected from brood frames in the apiary of Aarhus University, Flakkebjerg. The collected bees were fed on 50% sucrose for 3 days. On day 3, the bees were divided into eight experimental groups placed in feeding cages (N = 49–73). The exact numbers of bees in the individual cages were counted at the end of the experiment. A portion of bees were also collected for the analysis of the presence of the compounds prior to the experiment. Thus, these bees served as a negative control group. The feeding boxes were placed in incubators in complete darkness under the following conditions: 34 °C; 38–40% relative humidity. Information about plants known to produce the phytochemicals fed to the honey bees is included in the Supporting Information (Table S1). The prepared solutions were placed in 1.5 mL Eppendorf tubes, and the bottom of the tubes was pierced with a sterilized needle to allow the bees to feed on the solution. The feeding solutions were replaced every 24 h to prevent compound degradation and measure food intake. Dead bees were counted and removed daily. On day 5, the feeding containers were removed, and 2 h later, the bees were anesthetized with CO2 and killed by freezing.
Six bees from each of the experimental groups were defrosted and rinsed with water, and their heads were removed with a scalpel to cut the esophagus. The complete alimentary canal (hereafter “gut”) was removed by grabbing the stinger with tweezers and gently pulling until the alimentary canal was released.[31] The two samples consisting of the gut and the rest of the bee without the gut (head, thorax, and abdomen; hereafter, “bee without gut”) were lyophilized separately in 1.5 mL Eppendorf tubes. Upon drying, the samples comprising the bees without guts were transferred to the extraction Falcon tubes, pulverized, and extracted as described above for the whole bees. Samples comprising the guts were instead pulverized directly in the 1.5 mL Eppendorf tubes by adding two metal beads and placing these tubes in the Geno/Grinder using a modified rack. Because of the small sample size, the pulverized guts were then gradually transferred to the extraction Falcon tubes using the extraction solvents to flush the material from the Eppendorf tubes. The remaining parts of the extraction followed the protocols described above for whole bees.
(§2) Prior to the analysis, the compound-dependent mass spectrometer parameters of the eight compounds were optimized by infusion. For each compound, two MRM transitions were monitored (Table 2); one transition was used for quantification, whereas the other was used as a qualifier MRM to ensure correct identification.
(§3) The compounds were separated on a Synergy Fusion column (150 mm × 2 mm, 4 μm; Phenomenex, Værløse, Denmark) with a flow rate of 0.4 mL/min, and the gradient was as follows: 0–2 min: 100% A; 2–18 min: 100–30% A; 18–19 min: 30–0% A; 19–22 min: 0% A; 22–23 min: 0–100% A and 23–30 min: 100% A. Source parameters were as follows: curtain gas (CUR), 45 psi; collision gas (CAD), medium; temperature (TEM), 400 °C; ion source gas 1 (GS 1), 90 psi; ion source gas 2 (GS 2), 30 psi; and ionspray voltage (IS), 4200 V. Amygdalin was analyzed using the same source parameters and chromatographic method as described above, but in negative mode. […] The column was a Hypersil BDS C18 (250 mm × 2.1 mm, 5 μm; Thermo Fisher, Hvidovre, Denmark), and the solvent system consisted of 5 mM ammonium formate (A) and methanol (B). […] An injection volume of 30 μL was used for the triptolide analyses, whereas 20 and 30 μL were injected for the remaining compounds for whole and dissected bees, respectively.
In the individual dissected bees (N = 6), the sum of the quantities recovered in the guts and the bees without guts designates the total quantity of compound recovered in that individual.

[1] = for Metabolization percentage, day 4 to 5: quantity in whole bees vs intake during the last 24 h of feeding
Description: as §1
Twelve individual bees from each of the experimental groups were rinsed with water and placed individually in 1.5 mL Eppendorf tubes. The bees were then lyophilized and transferred individually to Falcon tubes for extraction. […] The extraction solvents were added, and the bees were extracted by shaking using an Intelli-Mixer for 1 h (60 rpm). […] After extraction, the samples were centrifuged (12 min, 4 °C, 4500 rpm). […] Extracts of bees fed on triptolide were further purified by solid phase extraction (SPE) using a protocol modified from Wang et al.[30] One milliliter of the methanol extracts was diluted to 10 mL with Milli-Q water, 100 μL of formic acid was added, and the diluted extracts were loaded onto 30 mg Oasis HLB prime SPE (Waters, Hedehusene, Denmark) cartridges without prior column conditioning. The SPE cartridges were first washed with 1 mL of 2% ammonium hydroxide in 1:9 methanol/water and then with 1 mL of 2% acetic acid in 3:7 methanol/water, and triptolide was eluted from the cartridges with 1 mL of 4:1 methanol/water. Prior to HPLC-MS/MS analyses, 225 μL of the SPE eluates was diluted with 275 μL of 5 mM ammonium formate and filtered using a syringe filter (Kinesis KX PTFE syringe filter 13 mm, 0.22 μm, Mikrolab, Aarhus, Denmark).
as §2, §3

[2] = tested on: honey bee memory retrieval; settings: cited from earlier work
honey bees = settings: cited from earlier work
Crithidia bombi = settings: bumble bees; cited from earlier work
[3] = tested on: honey bee immune functions (antimicrobial peptide hymenoptaecin); set-up: method as in PMID 28981688; settings: cited from earlier work
[4] = dissected bees N = 6, day 5, ± SD
[5] = honey bee (Apis mellifera), in vivo, po, oral bioavailability (%), percentage of the total ingested quantity over the 5-day feeding period recovered in the bees without guts, ± SD, dissected bees N = 6
[6] = in vivo, po, oral bioavailability (%), percentage of the total ingested quantity over the 5-day feeding period recovered in the bees without guts, ± SD, dissected bees N = 6
[7] = percentage of the total ingested quantity over the 5-day feeding period recovered in the bees without guts, ± SD, dissected bees N = 6
[8] = comparison between the eight phytochemicals, P < 0.05
[9] = whole bees N = 12, sampled day 5, 2 h after feeding was terminated, ± SD
[10] = honey bee (Apis mellifera), in vivo

## C/C=C1/C[C@@H](C)[C@@](C)(O)C(=O)OC/C2=C/CN(C)CC[C@@H](OC1=O)C2=O [senkirkine, Senkirkine]
In vivo; [4]
  Bee without gut (ng/bee): 7.0 ± 4.9 ng/bee
  Gut (ng/bee): 2.3 ± 3.0 ng/bee
In vivo; [5]
  bioavailability: < 10%
In vivo; [6]
  bioavailability: 9%
In vivo; [7]
  oral bioavailability (%): 8.9 ± 6.3%
In vivo; ± SD
  Bee without gut %: 73 ± 28%
  Gut %: 27%
[1]; [8]
  Relative metabolization rate: metabolized significantly faster
[1]; [9]
  Mean concentration (ng/bee) in whole bees: 7.4 ± 3.5 ng/bee

## CN1[C@@H]2CC[C@H]1C[C@@H](OC(=O)C(CO)c1ccccc1)C2 (stereo partly shown) [atropine, Atropine, reference compound]
[2]
  Consumed concentration that can impair honey bee memory retrieval: above 10^–2 M
In vivo; [4]
  Bee without gut (ng/bee): 89 ± 65 ng/bee
  Gut (ng/bee): 90 ± 17 ng/bee
In vivo; ± SD
  Bee without gut %: 46 ± 15%
  Gut %: 54 ± 15%
[1]; [9]
  Mean concentration (ng/bee) in whole bees: 236 ± 76 ng/bee

## N#C[C@H](O[C@@H]1O[C@H](CO[C@@H]2O[C@H](CO)[C@@H](O)[C@H](O)[C@H]2O)[C@@H](O)[C@H](O)[C@H]1O)c1ccccc1 [amygdalin, Amygdalin]
Honey bees
  LD50: 0.003%
In vivo; [4]
  Bee without gut (ng/bee): 833 ± 511 ng/bee
  Gut (ng/bee): 78 ± 34 ng/bee
In vivo; [6]
  bioavailability: 31 ± 19%
In vivo; ± SD
  Bee without gut %: 90 ± 5%
  Gut %: 11%
[1]; [8]
  Relative metabolization rate: metabolized significantly faster
[1]; [9]
  Mean concentration (ng/bee) in whole bees: 238 ± 218 ng/bee

## CC(C)[C@]12O[C@H]1[C@@H]1O[C@]13[C@]1(O[C@H]1C[C@H]1C4=C(CC[C@@]13C)C(=O)OC4)[C@@H]2O [triptolide, Triptolide]
In vivo; [4]
  Bee without gut (ng/bee): 3.1 ± 1.5 ng/bee
  Gut (ng/bee): 0.6 ± 0.2 ng/bee
In vivo; [6]
  bioavailability: 21%
In vivo; [7]
  oral bioavailability (%): 20.6 ± 9.9%
In vivo; ± SD
  Bee without gut %: 79 ± 11%
  Gut %: 21 ± 11%
[1]; [8]
  Relative metabolization rate: metabolized significantly slower
[1]
  Metabolization percentage, day 4 to 5: significantly lower; also recorded: negative metabolization percentages
[1]; quantity in whole bees vs total intake over the 5-day feeding period, day 5, 2 h after feeding was terminated
  Metabolization percentage, day 1 to 5: significantly lower
[1]; [9]
  Mean concentration (ng/bee) in whole bees: 4.4 ± 2.8 ng/bee

## C=C[C@]12CN(C)[C@@H]3[C@H]4CO[C@H](C[C@H]41)[C@]1(C(=O)Nc4ccccc41)[C@@H]32 [gelsemine, Gelsemine]
Crithidia bombi
  Effect on levels of the bumble bee gut protozoan Crithidia bombi: significantly decreased the levels
In vivo; [4]
  Bee without gut (ng/bee): 461 ± 415 ng/bee
  Gut (ng/bee): 106 ± 67 ng/bee
In vivo; [6]
  bioavailability at 5 day: 6%
In vivo; [7]
  oral bioavailability (%): 6.1 ± 5.5%
In vivo; ± SD
  Bee without gut %: 71 ± 32%
  Gut %: 30%
In vivo; ± SD, listed as Gelsemine
  Gut %: 30 ± 32%
[1]; [8]
  Relative metabolization rate: metabolized significantly faster
[1]; [9]
  Mean concentration (ng/bee) in whole bees: 508 ± 174 ng/bee

## C/C=C1/C[C@@H](C)[C@@](C)(O)C(=O)OCC2=CCN3CC[C@@H](OC1=O)[C@@H]23 [senecionine, Senecionine]
In vivo; [10]
  Bee without gut (ng/bee): 3.4 ± 2.2 ng/bee
  Gut (ng/bee): 2.3 ± 1.3 ng/bee
In vivo; honey bee (Apis mellifera), in vivo, po, oral bioavailability (%)
  bioavailability: < 10%
In vivo; in vivo, po, oral bioavailability (%)
  bioavailability: 4 ± 2.6%
[1]; [10]
  Mean concentration (ng/bee) in whole bees: 4.9 ± 1.6 ng/bee
[1]; in vivo
  Relative metabolization rate: metabolized significantly faster

## OCC1=C[C@@H](O)[C@@H]2C=CO[C@@H](O[C@@H]3O[C@H](CO)[C@@H](O)[C@H](O)[C@H]3O)[C@H]12 [aucubin, Aucubin]
Crithidia bombi
  Effect on levels of the bumble bee gut protozoan Crithidia bombi: significantly decreased the levels
In vivo; [5]
  bioavailability: 13%
In vivo; [6]
  bioavailability: 13.1 ± 3.8%
[1]; [8]
  Relative metabolization rate: metabolized significantly slower
[1]
  Metabolization percentage, day 4 to 5: significantly lower; also recorded: negative metabolization percentages
[1]; [9]
  Mean concentration (ng/bee) in whole bees: 16400 ± 5640 ng/bee
[3]; aucubin feeding
  Effect on expression of the antimicrobial peptide hymenoptaecin: significantly increased the expression
[3]
  Effect on honey bee immune functions: significantly stimulated honey bee immune functions

## CCN1C[C@]2(COC(=O)c3ccccc3N3C(=O)C[C@H](C)C3=O)CC[C@H](OC)[C@@]34[C@@H]5C[C@H]6[C@H](OC)[C@@H]5[C@](O)(C[C@@H]6OC)[C@@](O)([C@@H](OC)[C@H]23)[C@@H]14 [methyllycaconitine, Methyllycaconitine]
In vivo; [4]
  Bee without gut (ng/bee): 0.2 ± 0.1 ng/bee
  Gut (ng/bee): 0.05 ± 0.03 ng/bee
In vivo; [6]
  bioavailability: < 10%
In vivo; ± SD
  Bee without gut %: 81 ± 13%
  Gut %: 19 ± 13%
[1]; [8]
  Relative metabolization rate: metabolized significantly faster
[1]; [9]
  Mean concentration (ng/bee) in whole bees: 0.3 ± 0.2 ng/bee
